Data as given in patent US20130296358A1, “3-SPIROCYCLIC PIPERIDINE DERIVATIVES AS GHRELIN RECEPTOR AGONISTS” (priority 2012, published 2013).

What was measured:
[1] = molecular target: T1, human recombinant ghrelin receptor (GHS-R1a) (Homo sapiens, UniProt Q92847); experiment: Calcium assay, CHO-K1 cells expressing hGHS-R1a (Fluo-4); assay type: cell-based
T1 construct: host or cells: CHO-K1
Method: (§1) Chinese hamster ovary (CHO-K1) cells expressing human recombinant ghrelin receptor (GHS-R1a) were purchased from Euroscreen (ES-410-C) and propagated in UltraCHO medium containing glutamine and supplemented with 1% heat inactivated foetal calf serum (FCS), 100 U/ml penicillin, 100 mg/l streptomycin and 0.8 g/l geneticin. Cells were sub-cultured twice a week with a 1:10 dilution. For passaging, cells were washed with 1× DPBS without calcium and magnesium, trypsinised for 10 min with 0.05% Trypsin/EDTA and resuspended in cell culture medium.
Cells were diluted to achieve 1×10^6 cells/ml, seeded in 384-well black clear bottom CellBind plates at 25000 cells/well (25u1) and incubated overnight at 37° C./5% CO2 Cells were expected to be 85-90% confluent on the day of assay (checked under the microscope) to ensure a high quality assay. Media was manually removed and 40 μl of loading solution containing probenecid and Fluo-4 no wash dye (a calcium indicator, Invitrogen F36206) were added to each well. After 30 min at 37° C. followed by another 30 min at RT, cpds were added to the wells. To generate a dose response up to 30 μM, 10 mM compound stocks in 100% (v/v) DMSO were firstly diluted in 50% (v/v) DMSO. Then, serial dilutions aimed at a full logarithmic dose responses (8 point) were performed in assay buffer [1×HBSS, 20 mM Hepes, 0.1% (w/v) BSA] to give 2.5% (v/v) DMSO and 5× final compound concentrations. The final assay DMSO concentration was 0.5% (v/v). After loading the cells with Fluo-4 containing solution, plates were read on a CeIlLux instrument (Perkin Elmer). A protocol set up to add 10 μl of 5× compound and to read the plate for 60sec after adding the compound at 17th sec was used. Fluorescence excitation took place at 494 nm and emission at 516 nm. EC50 values of agonists were calculated by fitting the percent stimulation over background [(Max-Min)/Min] using the nonlinear logistic function of the Prism 5 software (GraphPad, USA).

[2] = molecular target: T1, human recombinant ghrelin receptor (GHS-R1a); experiment: cAMP assay (HTRF), CHO-hGHS-R1a cells; assay type: cell-based; conditions: for Emax / hGHS-R1a cAMP assay Emax/%: relative to the ghrelin response (defined as 100%)
Method: as §1
The Homogeneous Time-Resolved Fluorescence (HTRF) cAMP dynamic 2 kit (Cisbio International, France) was used as follows. CHO-hGHS—R1a or CHO-rGHS—R1a cells were seeded in a volume of 25 μl culture media at 10,000 cells/well (400,000 cells/ml) in Greiner white 384-well high volume plates and incubated overnight (18-24 h) at 37° C./5% CO2. Then, media was removed and 6 μl assay buffer [HBSS, 10 mM Hepes, 0.2% (w/v) BSA, 1.7 mM IBMX, (pH7.4)] were added to the wells. To generate a dose response up to 30 μM, 10 mM compound stocks in 100% (v/v) DMSO were firstly diluted in 50% (v/v) DMSO followed by a further dilution into assay buffer. Then, 4 μl of 2.5× compound (dose response as 9 point log serial dilution in assay buffer from 30 μM as maximum concentration) were added to each well achieving a final DMSO assay concentration of 0.8% (v/v). 0.1 μM forskolin was added as positive control. After 30 min (rGHS—R1a cell line) or 60 min (hGHS—R1a cell line) incubation at 37° C./5% CO2, 5 μl of cAMP-d2 and 5 μl of anti-cAMP antibody-cryptate, (both made in lysis buffer), were added to the plate followed by 1 h incubation at RT. During this time, cAMP produced by the cells competed with cAMP-d2 for the anti-cAMP antibody-cryptate molecule. Then, the plate was read on the Pherastar instrument (BMG, Germany) at two different emission wavelengths ([…]). Increasing levels of endogenous cAMP produced by cells could be followed by a decrease of FRET fluorescent signal and viceversa. Values represented by a change in arbitrary fluorescence ratios (665/620) were converted into cAMP concentrations by using a standard curve, the reagents for which were supplied with the kit. EC50 values of agonists were calculated using the nonlinear logistic function of the Prism 5 software (GraphPad, USA). Emax were expressed as relative values of the ghrelin response, which was defined as 100%.

rat fundus = experiment: Rat fundus contractility assay (EFS-induced contraction of muscle strips); conditions: for EC50: increase of EFS-induced contraction, mean of preparations from at least 3 animals; for Emax/% / Emax: relative to the response to ghrelin (100 nM), defined as 100%
Method: Male Sprague Dawley rats (180-250 g) were culled by cervical dislocation and the fundus was removed. Each fundus was placed on a Krebs Henseleit (KH) buffer soaked dissection dish and cut along the long curvature to form a flattened sheet that was pinned in each corner. Four adjacent longitudinal strips (10×3 mm) were cut and the mucosa removed by sharp dissection. Each muscle strip was mounted in a 10 ml organ bath containing oxygenated KH at 37° C. Each strip was connected to an isometric force transducer, calibrated initially using a 5 g weight. The signal (g tension) was amplified and responses recorded by a Powerlab data capture system, connected to a computer running Labchart software (version 5.0). Tissues were placed under 1 g tension for an equilibration period of 30 min or until the baseline tension had stabilised. Carbachol (CCh, 100 nM) was then administered to establish the maximum contractile response of each preparation. Tissues were washed thoroughly and left for 30 min to re-equilibrate. Next, the muscle strips underwent electrical field stimulation (EFS). Maximal EFS pulse trains of 12V, 5 Hz, 0.1 msec pulse width, for 2 sec every 60 sec were applied until consistent electrically-stimulated phasic contractions were recorded. The voltage was then reduced in 1V increments until a consistent submaximal (EC50-75) EFS response was observed. Ghrelin (100 nM) was administered and left until a maximum response was obtained. Tissues were then washed thoroughly and left for 30 min. Once the EFS-induced contraction had re-stabilised, cumulative additions (10 nM-10 μM) of each test compound were administered. Individual responses were calculated by determining the peak of the EFS-induced contraction minus the baseline. […] The mean EC50 value for compounds was generated from data obtained on stomach preparations from at least 3 different animals.

[3] = CHO-K1, relative to the Emax induced by MK-0677 (defined as 100%), read-out: hGHS-R1a Ca assay Emax/%

T1 sequence (Q92847 whole entry): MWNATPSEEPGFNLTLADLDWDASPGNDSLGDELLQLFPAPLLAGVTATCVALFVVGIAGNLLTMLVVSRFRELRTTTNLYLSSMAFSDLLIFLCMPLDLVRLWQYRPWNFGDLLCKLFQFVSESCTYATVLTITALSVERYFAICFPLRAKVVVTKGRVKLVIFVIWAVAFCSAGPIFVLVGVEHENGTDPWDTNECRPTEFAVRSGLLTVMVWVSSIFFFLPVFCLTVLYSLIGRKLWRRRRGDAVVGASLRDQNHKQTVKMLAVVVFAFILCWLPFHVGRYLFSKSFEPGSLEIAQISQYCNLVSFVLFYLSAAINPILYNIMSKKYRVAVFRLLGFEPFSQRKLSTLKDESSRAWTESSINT

| SMILES | Emax [1, 3] | Emax [2] | further results |
| --- | --- | --- | --- |
| COc1ccc(COC[C@@H](NC(=O)C(C)(C)N)C(=O)N2CCCC3(C2)C(=O)N(C)CC3c2ccccc2)cc1 (single isomer, unassigned) [Example 6.0(ii), 2-Amino-N—[(R)-1-(4-methoxy-benzyloxymethyl)-2-((4S,5R)-2-methyl-1-oxo-4-phenyl-2,7-diaza-spiro[4.5]dec-7-yl)-2-oxo-ethyl]-2-methyl-propionamide or 2-Amino-N—[(R)-1-(4-methoxy-benzyloxymethyl)-2-(4R,5S)-2-methyl-1-oxo-4-phenyl-2,7-diaza-spiro[4.5]dec-7-yl)-2-oxo-ethyl]-2-methyl-propionamide] | 103% | 268% | – |
| CCN1CC(c2ccccc2)C2(CCCN(C(=O)[C@@H](COCc3ccccc3)NC(=O)C(C)(C)N)C2)C1=O (single isomer, unassigned) [Example 1.25] | 103% | 223% | – |
| Cc1ccc(COC[C@@H](NC(=O)C(C)(C)N)C(=O)N2CCCC3(C2)C(=O)N(C)CC3c2ccccc2)cc1 (single isomer, unassigned) [Example 1.55] | 94% | 191% | – |
| CCC(N)(CC)C(=O)N[C@H](COCc1ccccc1)C(=O)N1CCC[C@@]2(C1)C(=O)N(C)C[C@H]2c1ccccc1 [Example 1.71, 2-amino-N-((R)-3-(benzyloxy)-1-((4S,5R)-2-methyl-1-oxo-4-phenyl-2,7-diazaspiro[4.5]decan-7-yl)-1-oxopropan-2-yl)-2-ethylbutanamide] | 108% | 111% | – |
| CN1CC(c2ccccc2)C2(CCCN(C(=O)[C@@H](CCCc3ccccc3)NC(=O)C(C)(C)N)C2)C1=O (single isomer, unassigned) [Example 1.33] | – | – | EC50 (rat fundus): 84 nM; Emax/% (rat fundus): 131% |
| CC(C)N1CC(c2ccc(F)cc2)C2(CCCN(C(=O)[C@@H](COCc3ccccc3)NC(=O)C(C)(C)N)C2)C1=O (single isomer, unassigned) [Example 1.18] | – | – | Emax (rat fundus; Rattus norvegicus): 117%; EC50 (rat fundus): 148 nM |
| CN1CN(c2ccccc2)C2(CCCN(C(=O)[C@@H](COCc3ccccc3)NC(=O)C(C)(C)N)C2)C1=O (single isomer, unassigned) [Example 1.61] | 73% | 189% | – |
| CC(C)N1CC(c2ccc(F)cc2)C2(CCCN(C(=O)[C@@H](COCc3ccccc3)NC(=O)C(C)(C)N)C2)C1=O (single isomer, unassigned) [Example 1.19] | – | – | EC50 (rat fundus): 23 nM; Emax/% (rat fundus): 124% |
| CC(C)(N)C(=O)N[C@H](COCc1ccccc1)C(=O)N1CCC2(CC1)CN(S(C)(=O)=O)c1ccccc12 [MK-0677, reference compound] | – | – | Emax ([1]; compared with ghrelin): same Emax as ghrelin |
| CC(C)N1CC(c2ccccc2)C2(CCCN(C(=O)[C@@H](Cc3c[nH]c4ccccc34)NC(=O)C(C)(C)N)C2)C1=O (single isomer, unassigned) [Example 3.0(ii)] | – | – | EC50 (rat fundus; Rattus norvegicus): 15 nM; Emax (rat fundus; Rattus norvegicus): 85% |
| CN1CC(c2ccccc2)C2(CCCN(C(=O)[C@@H](COCC3CCCCC3)NC(=O)C(C)(C)N)C2)C1=O (single isomer, unassigned) [Example 1.60] | 98% | 171% | – |
| CN1CC(c2ccccc2)C2(CCN(C(=O)[C@@H](COCc3ccccc3)NC(=O)C(C)(C)N)C2)C1=O (single isomer, unassigned) [Example 8.0] | 101% | 129% | EC50 ([1]; CHO-K1 cells expressing hGHS-R1a, read-out: hGHS-R1a Ca assay EC50/μM): 0.0046 µM; EC50 ([2]; CHO-hGHS-R1a cells, 60 min incubation, maximum concentration 30 μM): 2.38 µM |
| CN1C(=O)C2(CCCN(C(=O)[C@@H](COCc3ccccc3)NC(=O)C(C)(C)N)C2)C1c1ccccc1 (single isomer, unassigned) [Example 2.0(iii)] | – | – | EC50 (rat fundus): 70 nM; Emax/% (rat fundus): 70% |
| CN1CC(c2ccccc2)C2(CCCN(C(=O)[C@@H](COCc3ccc(F)cc3)NC(=O)C(C)(C)N)C2)C1=O (single isomer, unassigned) [Example 7.0, 2-Amino-N—[(R)-1-(4-fluoro-benzyloxymethyl)-2-(4S,5R)-2-methyl-1-oxo-4-phenyl-2,7-diaza-spiro[4.5]clec-7-yl)-2-oxo-ethyl]-2-methyl-propionamide or 2-Amino-N—[(R)-1-(4-fluoro-benzyloxymethyl)-2-(4R,5S)-2-methyl-1-oxo-4-phenyl-2,7-diaza-spiro[4.5]clec-7-yl)-2-oxo-ethyl]-2-methyl-propionamide] | 83% | 153% | – |
| CC(C)(N)C(=O)N[C@H](COCc1ccccc1)C(=O)N1CCCC2(C1)C(=O)NCC2c1ccccc1 (single isomer, unassigned) [Example 1.4] | 100% | – | hGHS-R1a cAMP assay Emax/% [2]: 127% |
| CN1CC(c2ccccc2)C2(CCCN(C(=O)[C@@H](CCc3ccccc3)NC(=O)C(C)(C)N)C2)C1=O (single isomer, unassigned) [Example 1.28] | 106% | 194% | – |
| CN1CC(c2ccccc2)C2(CCCN(C(=O)[C@@H](COCc3ccccc3)NC(=O)C(C)(C)N)CC2)C1=O (single isomer, unassigned) [Example 9.0(iv)] | 96% | 127% | – |
| Cc1ccccc1C1CN(C)C(=O)C12CCCN(C(=O)[C@@H](COCc1ccccc1)NC(=O)C(C)(C)N)C2 (single isomer, unassigned) [Example 1.51] | 98% | 141% | – |
| CN1CC(c2ccc(Cl)cc2)C2(CCCN(C(=O)[C@@H](COCc3ccccc3)NC(=O)C(C)(C)N)C2)C1=O (single isomer, unassigned) [Example 1.8] | 102% | 149% | – |
| CC(C)(N)C(=O)N[C@H](COCc1ccccc1)C(=O)N1CCCC2(C1)C(=O)NCC2c1ccccc1 (single isomer, unassigned) [Example 1.49] | – | – | hGHS-R1a cAMP assay Emax/% [2]: 88% |
| CC(C)N1CC(c2ccccc2)C2(CCCN(C(=O)[C@@H](COCc3ccccc3)NC(=O)C(C)(C)N)C2)C1=O (single isomer, unassigned) [Example 1.6] | – | – | EC50 (rat fundus): 373 nM; Emax/% (rat fundus): 70% |
